Measurements reported in patent US20070123718A1, “Novel 4-amino-2(5H)-furanones” (Aston University, priority 2003, published 2007).
Like-named read-outs stand apart in the source and are kept apart here.

How the values were obtained:
[1] = target: T1, CCKB receptor (guinea pig cerebral cortex) (Cavia porcellus, UniProt H0VZC5); test: 125I-CCK-8 receptor binding assay, CCKB; conditions: guinea pig cerebral cortex membranes
T1 construct: CCKB (nM); other: guinea pig cerebral cortex membranes, 125I-Bolton-Hunter CCK 25 pM; Activity CCK-B [μM]; guinea pig cerebral cortex membranes
T1 sequence (H0VZC5 1-426): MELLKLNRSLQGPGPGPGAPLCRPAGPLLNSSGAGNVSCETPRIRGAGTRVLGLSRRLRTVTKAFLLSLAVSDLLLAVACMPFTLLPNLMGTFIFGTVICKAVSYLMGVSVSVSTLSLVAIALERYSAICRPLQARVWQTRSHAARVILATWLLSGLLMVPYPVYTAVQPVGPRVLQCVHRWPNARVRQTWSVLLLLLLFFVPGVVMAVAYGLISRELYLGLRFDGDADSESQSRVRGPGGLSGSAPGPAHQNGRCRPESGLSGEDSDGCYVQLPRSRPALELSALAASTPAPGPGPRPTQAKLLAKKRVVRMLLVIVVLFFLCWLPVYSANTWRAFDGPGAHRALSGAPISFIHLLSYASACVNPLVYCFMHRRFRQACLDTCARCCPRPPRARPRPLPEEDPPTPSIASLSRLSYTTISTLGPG
Protocol: (§1) CCKA and CCKB receptor binding assays were performed, by using guinea pig cerebral cortex (CCKB) or rat pancreas (CCKA). Male guinea pig brain tissues were prepared according to the modified method described by Saita et al, [(1994), Characterization of YM022: its CCKB/gastrin receptor binding profile and antagonism to CCK-8-induced Ca2+mobilization., Eur. J. Pharmacol.,269, 249-254]. Pancreatic membranes were prepared in a similar way but by Charpentier et al, [(1988), Cyclic cholecystokinin analogues with high selectivity for central receptors., Proc Natl Acad Sci USA, 85, 1968-1972]. The […] CCK binding assay: Tissues were homogenized in ice cold sucrose (0.32 M, 25 ml) for 15 strokes at 500 rpm and centrifuged at 13000 rpm for 10 mins. The supernatant was re-centrifuged at 13000 rpm for 20 mins. The resulting pellet was re-dispersed to the required volume of buffer at 500 rpm and stored in aliquots at […].
(§2) Binding was achieved using a radioligand ^125I-Bolton-Hunter labeled CCK, NEN at 25 pM. The samples were incubated {with membranes (0.1 mg/ml) } in 20 mM Hepes, 1 mM EGTA, 5 mM MgCl2, 150 mm NaCl, 0.25 mg/ml bacitracin at pH 6.5 for 2 hrs at RT and then […] by centrifugation at 1100 rpm for 5 minutes. The membrane pellets were washed twice with water and the bound radioactivity was measured in a Packard Cobra Auto-gamma counter (B5005). All binding assays were carried out with L-363, 260 as an internal non-specific standard. Controls (no compound) were also added. All samples were made in duplicate and repeated twice. All compounds were initially screened for percentage inhibition at 20 μm. Samples showing an average inhibition of <35% were diluted to 2 μm and re-screened and if active diluted again.

[2] = tested on: CCKB receptor (guinea pig cerebral cortex); test: 125I-CCK-8 receptor binding assay, CCKB; conditions: ratio CCKB/CCKA
Protocol: as §1, §2

[3] = target: T2, CCKA receptor (rat pancreas) (Rattus norvegicus, UniProt P30551); test: 125I-CCK-8 receptor binding assay, CCKA; conditions: rat pancreas membranes, 125I-Bolton-Hunter CCK 25 pM
T2 construct: Pancreatic membranes were prepared in a similar way but by Charpentier et al; from tissue; host or cells: rat pancreas membranes
T2 sequence (P30551 1-444): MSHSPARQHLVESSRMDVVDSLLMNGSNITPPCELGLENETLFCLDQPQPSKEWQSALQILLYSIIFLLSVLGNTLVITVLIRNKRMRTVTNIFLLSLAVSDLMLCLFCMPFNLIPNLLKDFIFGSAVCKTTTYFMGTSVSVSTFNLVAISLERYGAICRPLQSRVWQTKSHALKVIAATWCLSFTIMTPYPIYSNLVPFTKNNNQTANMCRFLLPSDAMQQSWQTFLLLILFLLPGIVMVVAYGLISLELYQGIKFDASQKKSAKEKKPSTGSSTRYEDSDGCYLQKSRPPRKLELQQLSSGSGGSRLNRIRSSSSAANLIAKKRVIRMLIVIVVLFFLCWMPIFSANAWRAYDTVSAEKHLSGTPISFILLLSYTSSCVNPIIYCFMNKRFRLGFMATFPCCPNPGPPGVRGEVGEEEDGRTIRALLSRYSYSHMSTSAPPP
Protocol: as §1, §2

[4] = Table 2, read-out: Activity CCK-B [μM] (IC50)
[5] = 125I-Bolton-Hunter CCK 25 pM, read-out: CCKB

IC50 [1, 4] [µM] | Structure (SMILES) | also measured
2.5 | COC1OC(=O)C(Cl)=C1Nc1cccc(C)c1 (stereo not drawn) [Example A8B4] | 
15 | COC1OC(=O)C(Cl)=C1NCCCN1CCOCC1 (stereo not drawn) [Example A8B17] | 
 | CC(C)CNC1=C(Cl)C(=O)OC1c1ccccc1 (stereo not drawn) [Example 17, 3-Chloro-4-(isobutylamino)-5-phenyl furan-2(5H)-one] | Selectivity [2]: 1.6; IC50 [1, 5]: 0.011 µM; IC50 [3]: 7 nM
> 20 | C#CCOC1OC(=O)C(Cl)=C1N1CCN(Cc2ccccc2)CC1 (stereo not drawn) [Example 5, 4-(4-Benzylpiperazin-1-yl) 3-chloro-5-(prop-2-ynyloxy)furan-2(5H)-one] | 
0.95 | CC(C)OC1OC(=O)C(Cl)=C1NCc1ccccc1Cl (stereo not drawn) [Example 11, 3-Chloro-4-[(2-chlorobenzyl)amino]-5-isopropoxy-4-2(SH)-oue] | 
3.3 | C=COC1OC(=O)C(Cl)=C1Nc1c(C)n(C)n(-c2ccccc2)c1=O (stereo not drawn) [Example 7, 3-Chloro-4-[(1,5-dimethyl-2-phenyl-1,3-dihydro-3H-pyrazol-3-one)amino]-5-(vinyloxy)furan-2(5H)-one] | 
1.5 | COC1OC(=O)C(Cl)=C1N1CCc2ccccc21 (stereo not drawn) [Example A8B2] | 
11 | COC1OC(=O)C(Cl)=C1n1ccc(C)n1 (stereo not drawn) [Example A8B26] | 
12.4 | CCCCCCCCCCCCCCCCOC1OC(=O)C(Cl)=C1N1CCN(C(=O)OCC)CC1 (stereo not drawn) [Example A7B24] | 
3 | COC1OC(=O)C(Cl)=C1N1CCC(c2ccccc2)CC1 (stereo not drawn) [Example A8B11] | 
 | CCCCCCNC1=C(Cl)C(=O)OC1OC (stereo not drawn) [Example 15, 3-Chloro-4-(hexylamino)-5-methoxyfuran-2(5H)-one] | Selectivity [2]: 1.5; IC50 [1, 5]: 0.012 µM; IC50 [3]: 8 nM
 | C#CCOC1OC(=O)C(Cl)=C1NCc1ccccc1 (stereo not drawn) [Example 4, 4-(Benzylamino)-3-chloro-5-(prop-2-ynyloxy)furan-2(5H)-one] | Selectivity [2]: 1.5; IC50 [1, 5]: 0.014 µM; IC50 [3]: 9 nM
11.2 | C#CCOC1OC(=O)C(Cl)=C1N1C(C)CNCC1C (stereo not drawn) [Example A3B20] | 
2.5 | CC(C)OC1OC(=O)C(Cl)=C1N1CCc2ccccc21 (stereo not drawn) [Example 9, 3-Chloro-4-(2,3-dihydro-1H-indol-1-yl)-5-isopropoxy-2(5H)-one] | 
2.5 | CCCCCCCCCCCCNC1=C(Cl)C(=O)OC1OC (stereo not drawn) [Example A8B10] | 
16 | COC1OC(=O)C(Cl)=C1NC1CCC(CCCc2ccccc2)CC1 (stereo not drawn) [Example A8B25] | 

IC50 [1, 4] [µM] | Structure (SMILES) | also measured
16 | O=C1OC(Cl)C(Nc2ccccc2)=C1Cl (stereo not drawn) [Example 8, 4-Anilino-3,5-dichlorofuran-2(5H)-one] | 
0.31 | CC1CCC(C(C)C)C(OC2OC(=O)C(Cl)=C2N(C)Cc2ccccc2)C1 (stereo not drawn) [Example 1, 4-[Benzyl(metliyl)arino]-3-chloro-5-[(2-isopropyl-5-methlylcyclohexyl)oxo] furan-2(5H)-one] | 
 | CCN(C1=C(Cl)C(=O)OC1CC(=O)c1ccc(Cl)cc1)c1cccc(C)c1 (stereo not drawn) [Example 16, 3-Chloro-5-[2-(4-chlorophenyl)-2-oxoethyl]-4-(ethyl-3-methylanilino) furan-2(5H)-one] | Selectivity [2]: 2.3; IC50 [1, 5]: 0.019 µM; IC50 [3]: 8 nM
18 | COC1OC(=O)C(Cl)=C1Nc1c(C)n(C)n(-c2ccccc2)c1=O (stereo not drawn) [Example 14] | 
> 20 | CC(=O)OC1OC(=O)C(Cl)=C1N1CCc2ccccc21 (stereo not drawn) [Example 2, 4-ClIforo-3-(2,3-dihydro-1H-indol-1-yl)-5-oxo-2,5-dihydrofuran-2-yl acetate] | 
14 | COC1OC(=O)C(Cl)=C1N1CCN(c2ccccc2)CC1 (stereo not drawn) [Example A8B8] | 
12 | CC(C)OC1OC(=O)C(Cl)=C1N(C)Cc1ccccc1 (stereo not drawn) [Example 10, 4-[Benzyl(methyl)amino]-3-chloro-5-isopropoxyfuran-2(5H)-one] | 
17 | CC(C)OC1OC(=O)C(Cl)=C1N(Cc1ccccc1)Cc1ccccc1 (stereo not drawn) [Example 12, 3-Chloro-4-(dibenzylamino)-5-isopropoxyfuran-2(5H)-one] | 
16 | COC1OC(=O)C(Cl)=C1N1CCN(Cc2ccccc2)CC1 (stereo not drawn) [Example A8B16] | 
1.1 | CC(C)OC1OC(=O)C(Cl)=C1NCCc1ccccc1 (stereo not drawn) [Example 13, 3-Chloro-5-isopropoxy-4-(phenethylamine)furan-2(5H)-one] | 
 | C#CCOC1OC(=O)C(Cl)=C1N(C(C)C)C1CCCCC1 (stereo not drawn) [Example 6, 3-Chloro-4-[cyclohexyl(isopropyl)amino]-5-(prop-2-ynyloxy)furan-2(5H)-one] | Selectivity [2]: 1.3; IC50 [1, 5]: 0.008 µM; IC50 [3]: 6 nM
12.6 | C#CCOC1OC(=O)C(Cl)=C1N1CC(C)OC(C)C1 (stereo not drawn) [Example 3, 3-Chloro-4-(2,6-dimethylmorpholin-4-yl)-5-(prop-2-ynyloxy)furan-2(5H)-one] | 
1.2 | CCC(C)NC1=C(Cl)C(=O)OC1OC (stereo not drawn) [Example A8B5] | 
0.86 | CCCCCCCCCCCCCCCCOC1OC(=O)C(Cl)=C1n1cc(C)cc1C (stereo not drawn) [Example A7B23] | 
2.2 | CC1CCC(C(C)C)C(OC2OC(=O)C(Cl)=C2N2CCCC2)C1 (stereo not drawn) [Example A1B9] | 
2.3 | COC1OC(=O)C(Cl)=C1n1cnc2ccccc21 (stereo not drawn) [Example A8B3] | 
